Assay results reported in publication PMC8953660, “Selective measurement of NAPE-PLD activity via a PLA1/2-resistant fluorogenic N-acyl-phosphatidylethanolamine analog” (Journal of Lipid Research, 2021).
Read-outs that look alike come from different tables or passages of the source.

Molecular target: T1, recombinant mouse Nape-pld (NAPE-PLD) (Mus musculus, UniProt Q8BH82)
T1 construct: gene Napepld
Conditions: 50 mM Tris-HCl pH 8.0, N-octyl-β-D-glucoside, 37 °C, allosteric sigmoidal fit

T1 sequence (Q8BH82 whole entry): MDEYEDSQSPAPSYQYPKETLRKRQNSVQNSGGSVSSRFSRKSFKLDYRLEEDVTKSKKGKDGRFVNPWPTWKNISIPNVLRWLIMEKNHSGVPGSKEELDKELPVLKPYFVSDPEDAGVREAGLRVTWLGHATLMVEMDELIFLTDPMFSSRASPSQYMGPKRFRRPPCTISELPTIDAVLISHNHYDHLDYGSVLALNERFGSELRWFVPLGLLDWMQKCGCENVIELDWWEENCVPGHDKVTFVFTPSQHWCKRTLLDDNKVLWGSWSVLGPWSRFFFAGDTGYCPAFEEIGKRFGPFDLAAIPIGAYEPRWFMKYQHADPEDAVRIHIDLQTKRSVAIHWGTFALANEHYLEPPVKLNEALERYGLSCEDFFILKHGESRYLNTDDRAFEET

CCCCCCO[C@H](COC(=O)CCCCC1=[N+]2C(=Cc3c(C)cc(C)n3[B-]2(F)F)C=C1)COP(=O)(O)OCCNC(=O)CCCCCNc1ccc([N+](=O)[O-])cc1[N+](=O)[O-] [PED-A1]
Km: 4 µM

CCCCCCO[C@@H](COP(=O)(O)OCCNC(=O)CCCCCNc1ccc([N+](=O)[O-])cc1[N+](=O)[O-])CN(C)C(=O)CCCCc1ccc2n1[B-](F)(F)[N+]1=C(C)C=C(C)C1=C2 [flame-NAPE]
Km (authors note evidence of an inadequate regression model for flame-NAPE): 9.2 µM
